Each structure is given as a SMILES string. Where only a bound is given, the exact number is not on record here.

The target of the test is T1, androgen receptor (Homo sapiens, UniProt P10275).
T1 sequence (P10275 1-920 Q868H): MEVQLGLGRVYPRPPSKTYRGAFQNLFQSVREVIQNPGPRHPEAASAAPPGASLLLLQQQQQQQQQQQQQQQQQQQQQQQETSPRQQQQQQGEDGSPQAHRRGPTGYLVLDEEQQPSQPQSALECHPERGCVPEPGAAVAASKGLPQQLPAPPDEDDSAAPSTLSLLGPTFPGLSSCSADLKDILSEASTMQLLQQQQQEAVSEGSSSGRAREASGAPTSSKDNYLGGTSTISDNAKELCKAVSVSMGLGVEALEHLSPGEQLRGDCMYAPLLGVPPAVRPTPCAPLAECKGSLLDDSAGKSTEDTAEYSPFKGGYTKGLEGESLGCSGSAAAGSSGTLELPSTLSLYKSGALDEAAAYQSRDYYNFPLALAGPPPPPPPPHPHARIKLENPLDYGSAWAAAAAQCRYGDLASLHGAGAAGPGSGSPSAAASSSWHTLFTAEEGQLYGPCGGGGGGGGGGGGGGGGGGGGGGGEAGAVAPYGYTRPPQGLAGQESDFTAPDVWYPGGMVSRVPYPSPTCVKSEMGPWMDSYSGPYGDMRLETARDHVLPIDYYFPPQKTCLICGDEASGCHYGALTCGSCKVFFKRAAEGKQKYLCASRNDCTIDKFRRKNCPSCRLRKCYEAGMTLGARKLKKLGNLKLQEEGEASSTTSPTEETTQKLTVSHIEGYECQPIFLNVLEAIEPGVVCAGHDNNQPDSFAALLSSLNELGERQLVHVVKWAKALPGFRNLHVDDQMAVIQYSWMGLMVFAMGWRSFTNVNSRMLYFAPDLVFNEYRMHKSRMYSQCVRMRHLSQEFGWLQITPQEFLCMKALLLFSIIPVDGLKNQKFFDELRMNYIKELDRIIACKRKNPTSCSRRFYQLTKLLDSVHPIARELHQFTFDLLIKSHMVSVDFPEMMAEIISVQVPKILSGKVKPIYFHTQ
Kind of test: AR Antagonist Cell Assay (MMTV-luciferase reporter, DHT-stimulated). Format: cell-based. As to conditions: MDA-MB453-MMTV clone 54-19 cells, inhibition of induction by 100 pM DHT, 17 hr. The method, then: The compounds ability to antagonize the effects of androgen on the androgen receptor were determined in the protocol described immediately below.
Experimental Procedure for AR Antagonist Cell Assay
Cell line: MDA-MB453-MMTV clone 54-19. This cell line is a stable transfected cell line with MDA-MB453 cell background (human breast tumor cell expressing high level of androgen receptor). A MMTV minimal promoter containing ARE was first cloned in front of a firefly luciferase reporter gene. Then the cascade was cloned into transfection vector pUV120puro. Electroporation method was used for transfecting MDA-MB-453 cell. Puromycin resistant stable cell line was selected.
Cell Culture Media and Reagents:
Culture medium: DMEM (high glucose, Gibco cat #: 11960-044), 10% FBS, and 1% L-glutamine
Plating medium: DMEM (phenol red free), 10% charcoal treated HyClone serum, 1% L-glutamine
Assay medium: DMEM (phenol red free), 1% charcoal treated HyClone serum, 1% L-glutamine, and 1% penicillin/streptomycin
3×luciferase buffer: 2% beta-mercaptoethanol, 0.6% ATP, 0.0135% luciferine in cell lysis buffer
• 1. Cells are maintained in culture medium, splitting cells when they reach 80–90% confluence • 2. To test compounds, 10,000 cells/well are plated to opaque 96 cell culture plate in 100 ul/well plating medium, culture for overnight at 37° C. in cell culture incubator • 3. Carefully remove plating medium, then add 80 ul/well of pre-warmed assay medium, add 10 ul/well testing compound (final concentration at 10 uM or 1 uM), incubate at 37° C. for 30 minutes • 4. Add 10 ul/well freshly prepared DHT (final concentration at 100 pM) to each well, incubate at 37° C. for 17 hr (overnight) • 5. Add 50 ul/well 3×luciferase buffer, incubate at room temperature for 5 minutes, then count on Luminometer
The fold induction over background by 100 pM DHT in the absence of testing compounds is standardized as 100% and experimental result is expressed as percentage of inhibition by testing compounds.
A word on the IC50: it is the concentration that gives 50% inhibition. Lower therefore signals inhibition by little substance. The compound `O=c1cc(C(F)(F)F)c2cc(Cc3ccc(S(=O)(=O)N4CCCc5ccccc54)cc3)ccc2o1` [Example 65, 6-[4-(3,4-Dihydro-2H-sulfonyl)benzyl]-4-trifluoromethylchromen-2-one] gave a concentration for half-maximal inhibition (IC50) of 5.9 µM. Under `O=c1cc(C(F)(F)F)c2cc(Cc3ccc(S(=O)(=O)N4CCC(O)CC4)cc3)ccc2o1` [Example 56, 6-[4-(4-Hydroxypiperidine-1-sulfonyl)benzyl]-4-trifluoromethylchromen-2-one] stands more than 10 µM; under `O=c1cc(C(F)(F)F)c2cc(Cc3ccc(S(=O)(=O)N4CCCCCCC4)cc3)ccc2o1` [Example 63, 6-[4-(Azocane-1-sulfonyl)benzyl]-4-trifluoromethylchromen-2-one], more than 10 µM.

In turn, `O=c1cc(C(F)(F)F)c2cc(Cc3ccc(S(=O)(=O)N4CCC4)cc3)ccc2[nH]1` [Example 25, 6-[4-(Azetidine-1-sulfonyl)benzyl]-4-trifluoromethyl-1H-quinolin-2-one] yielded an IC50 of 2.9 µM. `O=c1cc(C(F)(F)F)c2cc(Cc3ccc(S(=O)(=O)N4CCCCC4c4cccnc4)cc3)ccc2o1` (centres unmarked) [Example 48, 6-[4-(3,4,5,6-Tetrahydro-2H-[2,3′]bipyridinyl-1-sulfonyl)benzyl]-4-trifluoromethylchromen-2-one] registered an IC50 of 8.9 µM. Under `O=c1cc(C(F)(F)F)c2cc(Cc3ccc(S(=O)(=O)N4CCCC5CCCCC54)cc3)ccc2o1` (centres unmarked) [Example 53, 6-[4-(Octahydroquinoline-1-sulfonyl)benzyl]-4-trifluoromethylchromen-2-one] stands 4.2 µM; under `O=c1cc(C(F)(F)F)c2cc(Cc3ccc(S(=O)(=O)N4CCC(N5CCCC5)CC4)cc3)ccc2o1` [Example 30, 6-[4-(4-Pyrrolidin-1-ylpiperidine-1-sulfonyl)benzyl]-4-trifluoromethylchromen-2-one], more than 10 µM; under `O=c1cc(C(F)(F)F)c2cc(Cc3ccc(S(=O)(=O)N4CCCC4CO)cc3)ccc2[nH]1` (centres unmarked) [Example 18, 6-[4-(2-Hydroxymethylpyrrolidine-1-sulfonyl)benzyl]-4-trifluoromethyl-1H-quinolin-2-one], 8 µM.

`O=c1cc(C(F)(F)F)c2cc(Cc3ccc(S(=O)(=O)N4CCCCC4CCO)cc3)ccc2[nH]1` (centres unmarked) [Example 17, 6-{4-[2-(2-Hydroxyethyl)piperidine-1-sulfonyl]benzyl}-4-trifluoromethyl-1H-quinolin-2-one]: the 50% inhibitory concentration (IC50) is more than 10 µM.

Compound `CCN1CCN(S(=O)(=O)c2ccc(Cc3ccc4[nH]c(=O)cc(C(F)(F)F)c4c3)cc2)CC1` [Example 8, 6-[4-(4-Ethylpiperazine-1-sulfonyl)benzyl]-4-trifluoromethyl-1H-quinolin-2-one] yielded an IC50 of more than 10 µM. The compound `COCCN1CCN(S(=O)(=O)c2ccc(Cc3ccc4oc(=O)cc(C(F)(F)F)c4c3)cc2)CC1` [Example 39, 6-{4-[4-(2-Methoxyethyl)piperazine-1-sulfonyl]benzyl}-4-trifluoromethylchromen-2-one] gave an IC50 of 9.4 µM. This lies in the single-digit micromolar range. `COC(=O)[C@@H]1CCCN1S(=O)(=O)c1ccc(Cc2ccc3oc(=O)cc(C(F)(F)F)c3c2)cc1` [Example 41, 1-[4-(2-Oxo-4-trifluoromethyl-2H-chromen-6-ylmethyl)-benzenesulfonyl]pyrrolidine-2-carboxylic acidmethyl ester] displayed a half-inhibitory concentration (IC50) of more than 10 µM.

`O=c1cc(C(F)(F)F)c2cc(Cc3ccc(S(=O)(=O)N4CCN(c5ccncc5)CC4)cc3)ccc2o1` [Example 50, 6-[4-(4-Pyridin-4-ylpiperazine-1-sulfonyl)benzyl]-4-trifluoromethylchromen-2-one] showed a half-inhibitory concentration (IC50) of 1.6 µM. Under `CC1CCCCN1S(=O)(=O)c1ccc(Cc2ccc3[nH]c(=O)cc(C(F)(F)F)c3c2)cc1` (centres unmarked) [Example 22, 6-[4-(2-Methylpiperidine-1-sulfonyl)benzyl]-4-trifluoromethyl-1H-quinolin-2-one] stands more than 10 µM. For `O=c1cc(C(F)(F)F)c2cc(Cc3ccc(S(=O)(=O)N4CCN(CCCN5CCCCC5)CC4)cc3)ccc2o1` [Example 38, 6-{4-[4-(3-Piperidin-1-ylpropyl)piperazine-1-sulfonyl]benzyl}-4-trifluoromethylchromen-2-one] the value was more than 10 µM; for `O=c1cc(C(F)(F)F)c2cc(Cc3ccc(S(=O)(=O)N4CCN(CCO)CC4)cc3)ccc2o1` [Example 43, 6-{4-[4-(2-Hydroxyethyl)piperazine-1-sulfonyl]benzyl}-4-trifluoromethylchromen-2-one], 8.9 µM. Consider `O=c1cc(C(F)(F)F)c2cc(Cc3ccc(S(=O)(=O)N4Cc5ccccc5C4)cc3)ccc2o1` [Example 34, 6-[4-(1,3-Dihydroisoindole-2-sulfonyl)benzyl]-4-trifluoromethylchromen-2-one], for which the 50% inhibitory concentration (IC50) came out at 4.5 µM. Under `O=c1cc(C(F)(F)F)c2cc(Cc3ccc(S(=O)(=O)N4CCC(CO)CC4)cc3)ccc2o1` [Example 64, 6-[4-(4-Hydroxymethyl-piperidine-1-sulfonyl)benzyl]-4-trifluoromethylchromen-2-one] stands 2.5 µM; under `CCOC(=O)C1CCCN(S(=O)(=O)c2ccc(Cc3ccc4oc(=O)cc(C(F)(F)F)c4c3)cc2)C1` (centres unmarked) [Example 28, 1-[4-(2-Oxo-4-trifluoromethyl-2H-chromen-6-ylmethyl)-benzenesulfonyl]piperidine-3-carboxylic acid ethylester], more than 10 µM; under `O=C(CN1CCN(S(=O)(=O)c2ccc(Cc3ccc4oc(=O)cc(C(F)(F)F)c4c3)cc2)CC1)N1CCCC1` [Example 47, 6-{4-[4-(2-Oxo-2-pyrrolidin-1-ylethyl)piperazine-1-sulfonyl]benzyl}-4-trifluoromethylchromen-2-one], more than 10 µM. Regarding `O=c1cc(C(F)(F)F)c2cc(Cc3ccc(S(=O)(=O)N4CCN(CCCO)CC4)cc3)ccc2o1` [Example 31, 6-{4-[4-(3-Hydroxypropyl)piperazine-1-sulfonyl]benzyl}-4-trifluoromethylchromen-2-one], inhibition was half-maximal at 8.2 µM (IC50). For `CC1CCN(S(=O)(=O)c2ccc(Cc3ccc4oc(=O)cc(C(F)(F)F)c4c3)cc2)CC1` [Example 49, 6-[4-(4-Methylpiperidine-1-sulfonyl)benzyl]-4-trifluoromethylchromen-2-one] the value was more than 10 µM; for `O=c1cc(C(F)(F)F)c2cc(Cc3ccc(S(=O)(=O)N4CCSC4)cc3)ccc2[nH]1` [Example 12, 6-[4-(Thiazolidine-3-sulfonyl)benzyl]-4-trifluoromethyl-1H-quinolin-2-one], more than 10 µM; for `CCOC(=O)C1CCCN(S(=O)(=O)c2ccc(Cc3ccc4[nH]c(=O)cc(C(F)(F)F)c4c3)cc2)C1` (centres unmarked) [Example 1, 1-[4-(2-Oxo-4-trifluoromethyl-1,2-dihydroquinolin-6-ylmethyl)benzenesulfonyl]-piperidine-3-carboxylicacid ethyl ester], more than 10 µM. For `O=c1cc(C(F)(F)F)c2cc(Cc3ccc(S(=O)(=O)N4CCCCCC4)cc3)ccc2[nH]1` [Example 21, 6-[4-(Azepane-1-sulfonyl)benzyl]-4-trifluoromethyl-1H-quinolin-2-one] the value was 9.2 µM.

As for `O=c1cc(C(F)(F)F)c2cc(Cc3ccc(S(=O)(=O)N4CCCC(O)C4)cc3)ccc2o1` (centres unmarked) [Example 27, 6-[4-(3-Hydroxypiperidine-1-sulfonyl)benzyl]-4-trifluoromethylchromen-2-one], the IC50 is more than 10 µM.

Source of the values: patent US7057048B2, “Androgen receptor antagonists” (Warner Lambert Company LLC, priority 2003, dated 2006).
